18 compounds from PubChem BioAssay (NCI) can be followed below.

The term GI50 denotes the concentration that inhibits growth by half. For orientation: TGI means the concentration at which net growth stops. The low end stands for more potent growth arrest, the high end for less potent growth arrest.

SMILES strings stand for the structures.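 96-well plates; 48 h exposure; 5 concentrations. Endpoints by linear interpolation between flanking doses. Not reached: highest tested concentration assigned. The concentration for 50% growth inhibition is given as GI50. Definition used: TGI = concentration required for complete inhibition of growth.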

One experiment relates to CCRF-CEM leukemia. As to the kind of experiment: DTP human tumour cell line panel, 48 h.
On to `CSc1ccc(C2=Nn3c(nnc3-c3ccc(F)c(Cl)c3)SC2)cc1`, for which the GI50 was 11.1 µM and the TGI is above 100 µM.
Turning to `NCCCCNCCCNC(=O)CNC(=O)CC(O)C(N)CCCC(NC(=O)C(CN)NC(=O)C(O)CNC(=O)CC(N)c1ccc(O)cc1)C(=O)O` (stereo unspecified), the TGI is above 10 µM.
`Cc1cc2c(C(C)C)c(O)c(O)c(C=Nc3cc(C(F)(F)F)ccc3Cl)c2c(O)c1-c1c(C)cc2c(C(C)C)c(O)c(O)c(C=Nc3cc(C(F)(F)F)ccc3Cl)c2c1O` yielded a TGI above 100 µM.
On to `COc1cc(Nc2ccnc(N3CCN(c4ccnc5cc(Cl)ccc45)CC3)n2)cc(OC)c1`, for which the GI50 is 1.38 µM and the concentration for total growth inhibition (TGI) was above 100 µM.
As for `COC(=O)C1=C(OC(=O)c2ccc(Cl)cc2)C(C(=O)OC)[C@@]2(O)[C@@H](C(=O)OC)C(c3ccccc3C(F)(F)F)C[C@@H]1[C@@H]2C(=O)OC` (stereo partly specified), the GI50 is 3.54 µM and the TGI amounted to 31.2 µM.
On to `N#Cc1ccc(-c2nc(C#N)c(N)o2)cc1`, for which the TGI was above 10 µM.

The subject of another experiment is A498 renal. Nature of the experiment: DTP human tumour cell line panel, 48 h.
As to `COc1cc(-c2csc(NC(=O)c3cc(C(F)(F)F)cc(C(F)(F)F)c3)n2)cc(OC)c1OC`, the GI50 is 2.63 µM and the TGI was above 100 µM.
`CC(C)=CCC12Cc3ccc(O)cc3C(C(C)CN1)C2C` (stereo unspecified) displayed a TGI above 100 µM.
Same read-out and setting: the same measure for `CC[N+]1(C)CCC(O)(c2ccc(C)cc2)C(C(=O)c2ccc(C)cc2)C1` (stereo unspecified): above 100 µM.
With `CC(=O)c1cccc(N(/C=C/C(=O)C(F)(F)F)CC(=O)c2ccc(Cl)cc2)c1`, the GI50 was above 100 µM and the total growth inhibition concentration (TGI) was above 100 µM.
For the compound `COc1ccc(Cl)cc1Nc1nc(C(F)(F)F)ccc1C(=O)NN`, the GI50 is 1.51 µM and the TGI worked out at 63 µM.
In turn, `CC(C)c1ccc2nc3ccc(C(=O)NCCN(C)C)cn3c(=O)c2c1` had a concentration for total growth inhibition (TGI) of 30.8 µM. That is a double-digit micromolar value.
On to `C#C[C@]1(O)CC[C@H]2[C@@H]3CC=C4c5nc(Nc6ccccn6)sc5CC[C@]4(C)[C@H]3CC[C@@]21C`, for which the GI50 is 0.26 µM and the TGI came out at 1.19 µM.
The matching figures for `CSc1ccc(C2=Nn3c(nnc3-c3ccc(F)c(Cl)c3)SC2)cc1`: 10 µM and 30.2 µM.
As to `NCCCCNCCCNC(=O)CNC(=O)CC(O)C(N)CCCC(NC(=O)C(CN)NC(=O)C(O)CNC(=O)CC(N)c1ccc(O)cc1)C(=O)O` (stereo unspecified), the TGI is above 10 µM.
Take `Nc1cc(N)c2nc(-c3ccccc3)c(Oc3ccc(F)cc3)nc2c1`: the GI50 is 21.9 µM and the TGI was 39.6 µM.
Compound `Clc1ccccc1NN(Cc1ccccn1)c1ccccc1Cl` returned a TGI of 34.9 µM.
Compound `Cc1cc2c(C(C)C)c(O)c(O)c(C=Nc3cc(C(F)(F)F)ccc3Cl)c2c(O)c1-c1c(C)cc2c(C(C)C)c(O)c(O)c(C=Nc3cc(C(F)(F)F)ccc3Cl)c2c1O` displayed a TGI above 100 µM.
Still for that read-out and setting: the same measure for `CC(CO)[C@H]1OC(=O)C=C2[C@@]13O[C@@H]3[C@H]1OC(=O)[C@@]3(C)[C@H]4O[C@H]4C[C@@]2(C)[C@@H]13` (stereo partly specified): above 29.4 µM.
On to `COc1cc2cc(Oc3ccc(NC(=O)c4cccc(C(F)(F)F)c4)cc3)c(C)nc2cc1OC`, for which the GI50 is 1.78 µM and the TGI was 65 µM.
Consider `COc1cc(/C=C2\CN(C)CC3=C2Nc2nc(SC)[nH]c(=O)c2C3c2cc(OC)c(OC)c(OC)c2)cc(OC)c1OC` (stereo unspecified), for which the GI50 is 9.58 µM and the TGI amounted to 21.5 µM.
The matching figures for `COC(=O)C1=C(OC(=O)c2ccc(Cl)cc2)C(C(=O)OC)[C@@]2(O)[C@@H](C(=O)OC)C(c3ccccc3C(F)(F)F)C[C@@H]1[C@@H]2C(=O)OC` (stereo partly specified): 1.76 µM and 7.25 µM.

In the next experiment the test system is HS 578T breast. Nature of the experiment: DTP human tumour cell line panel, 48 h.
With `COc1cc(-c2csc(NC(=O)c3cc(C(F)(F)F)cc(C(F)(F)F)c3)n2)cc(OC)c1OC`, the GI50 is 3.14 µM and the TGI was above 100 µM.
Compound `CC(C)=CCC12Cc3ccc(O)cc3C(C(C)CN1)C2C` (stereo unspecified) gave a TGI above 100 µM.
The same measure, in the same setting: the figure for `CC[N+]1(C)CCC(O)(c2ccc(C)cc2)C(C(=O)c2ccc(C)cc2)C1` (stereo unspecified) is above 100 µM.
As to `CC(=O)c1cccc(N(/C=C/C(=O)C(F)(F)F)CC(=O)c2ccc(Cl)cc2)c1`, the GI50 was above 100 µM and the TGI is above 100 µM.
As to `COc1ccc(Cl)cc1Nc1nc(C(F)(F)F)ccc1C(=O)NN`, the GI50 was 12.3 µM and the TGI was above 100 µM.
On to `CC(C)c1ccc2nc3ccc(C(=O)NCCN(C)C)cn3c(=O)c2c1`, for which the TGI came out at 35.6 µM.
As for `C#C[C@]1(O)CC[C@H]2[C@@H]3CC=C4c5nc(Nc6ccccn6)sc5CC[C@]4(C)[C@H]3CC[C@@]21C`, the GI50 was 0.421 µM and the TGI worked out at 2.4 µM.
The matching figures for `CSc1ccc(C2=Nn3c(nnc3-c3ccc(F)c(Cl)c3)SC2)cc1`: 10 µM and 36.6 µM.
On to `NCCCCNCCCNC(=O)CNC(=O)CC(O)C(N)CCCC(NC(=O)C(CN)NC(=O)C(O)CNC(=O)CC(N)c1ccc(O)cc1)C(=O)O` (stereo unspecified), for which the TGI is above 10 µM.
Regarding `Nc1cc(N)c2nc(-c3ccccc3)c(Oc3ccc(F)cc3)nc2c1`, the GI50 is 19.8 µM and the TGI came to 53.7 µM.
Regarding `Clc1ccccc1NN(Cc1ccccn1)c1ccccc1Cl`, the TGI stood at 63.9 µM.
In the case of `Cc1cc2c(C(C)C)c(O)c(O)c(C=Nc3cc(C(F)(F)F)ccc3Cl)c2c(O)c1-c1c(C)cc2c(C(C)C)c(O)c(O)c(C=Nc3cc(C(F)(F)F)ccc3Cl)c2c1O`, the TGI is above 100 µM.
Take `CC(CO)[C@H]1OC(=O)C=C2[C@@]13O[C@@H]3[C@H]1OC(=O)[C@@]3(C)[C@H]4O[C@H]4C[C@@]2(C)[C@@H]13` (stereo partly specified): the TGI came out at 12.6 µM. This lies in the double-digit micromolar range.
Take `COc1cc2cc(Oc3ccc(NC(=O)c4cccc(C(F)(F)F)c4)cc3)c(C)nc2cc1OC`: the GI50 was 2.97 µM and the total growth inhibition concentration (TGI) came to 58.4 µM.
Regarding `COc1cc(/C=C2\CN(C)CC3=C2Nc2nc(SC)[nH]c(=O)c2C3c2cc(OC)c(OC)c(OC)c2)cc(OC)c1OC` (stereo unspecified), the GI50 is 8.88 µM and the TGI is above 100 µM.
Consider `COc1cc(Nc2ccnc(N3CCN(c4ccnc5cc(Cl)ccc45)CC3)n2)cc(OC)c1`, for which the GI50 is 2.59 µM and the TGI was above 100 µM.
For `COC(=O)C1=C(OC(=O)c2ccc(Cl)cc2)C(C(=O)OC)[C@@]2(O)[C@@H](C(=O)OC)C(c3ccccc3C(F)(F)F)C[C@@H]1[C@@H]2C(=O)OC` (stereo partly specified), the GI50 is 3.96 µM and the TGI is 24.2 µM.
`N#Cc1ccc(-c2nc(C#N)c(N)o2)cc1` gave a TGI above 10 µM.

Another experiment deals with OVCAR-4 ovarian. As to the kind of experiment: DTP human tumour cell line panel, 48 h.
Consider `COc1cc(-c2csc(NC(=O)c3cc(C(F)(F)F)cc(C(F)(F)F)c3)n2)cc(OC)c1OC`, for which the GI50 is 2.86 µM and the total growth inhibition concentration (TGI) is above 100 µM.
`CC(C)=CCC12Cc3ccc(O)cc3C(C(C)CN1)C2C` (stereo unspecified) came in with a TGI above 100 µM.
Same read-out and setting: the same measure for `CC[N+]1(C)CCC(O)(c2ccc(C)cc2)C(C(=O)c2ccc(C)cc2)C1` (stereo unspecified): 86.3 µM.
